From US20060029576A1, “Biological control of pythium disease in crops” (HER MAJESTY THE QUEEN IN RIGHT OF CANADA, THE MINISTER OF …, priority 2004, published 2006)

Experiments:
Type in all cases: in vivo
Pythium spp. [1] = test: Seed treatment of sugar beet, field naturally infested with Pythium spp. (2001 field experiments); conditions: 4 weeks after planting
Experimental: (§1) The selected strains of R. leguminosarum bv. viceae (R12, R20, and R21) effective against Pythium damping-off of sugar beet in indoor experiments were tested for control of damping-off of sugar beet and field pea in fields naturally infested with Pythium spp. at the Lethbridge Research Centre, Alberta. […] (Bardin et al. 2003). The seeds were coated with the bacterial slurry as described previously using 2.4 and 9.5 mL bacterial slurry/100 seeds of sugar beet and field pea, respectively. The seeds were dried overnight at room temperature on a metallic mesh, which was placed on a paper towel to absorb the excess slurry. The number of bacteria coated onto the seeds was similar for the four bacterial strains, ranging from 1.4×10^6±0.2×10^6 to 2.3×10^7±0.2×10^7 cfu/seed for sugar beets and 3.0×10^7±0.3×10^7 to 1.2×10^8±0.4×10^8 cfu/seed for field peas. The coated seeds were then stored at 4° C. until planting. Bacterial counts on the seeds were determined by vortexing five coated seeds in 5 mL of distilled sterile water for 30 seconds, and by plating serial dilutions on TY agar medium in Petri dishes for Rhizobium strains and on PDA in Petri dishes for P. fluorescens. […] Seedling emergence was recorded 4 weeks after planting and was compared with the uninoculated and fungicide controls. […]

[2] = system: Pythium spp. (predominantly Pythium sp. ‘group G’); test: Seed treatment of lentil cv. Laird, damping-off field experiment 2004
Experimental: (§2) The strains of Rhizobium leguminosarum bv. viceae used for the study were 99A1, R12, R20, and R21. Strain 99A1 was originated from the commercial pea inoculant produced by Agrium, Inc. Calgary, Alberta. Bacterial cultures were grown on tryptone-yeast agar (TYA) (Beringer, 1974) in Petri dishes for 48 h at room temperature (20±2° C.). The resulting colonies were suspended in 5 ml per dish of 1% methyl cellulose (Sigma-Aldrich, Milwaukee, Wis.) in sterile distilled water, and scraped gently with a spatula to obtain bacterial slurries. Seeds of field pea cv. Trapper and lentil cv. Laird were soaked for 20 minutes in the slurries, spread on a metallic mesh sheet with paper towel underneath to absorb the excess slurry, and air-dried overnight under a fume hood. Enumeration of bacteria coated onto seeds was done by placing 5 seeds in a test tube with 5 ml of sterile distilled water, vortexing for 30 sec, and plating serial dilutions on TYA, 0.1 ml per 9-cm dish. After incubation at room temperature for 3 days, bacterial colonies developed in each dish were counted. There were two replicates for each treatment.
(§3) Field experiments were conducted at the Agriculture and Agri-Food Canada Research Centre near Lethbridge, Alberta, Canada, in a field naturally infested with Pythium spp. (predominantly Pythium sp. ‘group G’). For the pea experiment, seeds were planted using a plot seeder on 28 May 2004, in 4-row plots with a row length of 5 m, a row spacing of 22.5 cm, and a plant spacing of 5 cm (i.e. 20 seeds/m). Untreated seeds and fungicide-treated seeds (Thiram™ at the rate of 30 g/25 kg seed) (Gustafson; Calgary, Alberta, Canada) were used as controls. Treatments were arranged in a randomized block design with 6 replicates. For the lentil experiment, seeds were planted on the same date and using the same parameters as for field pea.
(§4) Seedling emergence for each plot was determined. The number of healthy seedlings and the number of wilted seedlings were counted in the middle 3 m of each row, and the percent loss due to pre-emergent and post-emergent damping-off were calculated, as well as the final stand establishment. The causal agent of seedling death was determined by collecting 10 non-emerged seedlings and all of the wilted seedlings from each plot, washing in running water, surface sterilizing in 70% ethanol for 90 sec, incubating on potato dextrose agar (PDA) in Petri dishes at room temperature for 7 days, and examining the organisms derived from each sample. Results of reisolation of diseased seedlings were used to calculate the incidence of damping-off due to Pythium spp. for each plot.
(§5) Seedling height for each plot was determined (6-node stage for peas; 5-node stage for lentils). For each row, ten seedlings were randomly selected and the distance from the first node to the terminal branch of each seedling was measured.
(§6) Differences between treatments for incidence of damping-off, seedling emergence and seedling height data were analyzed for statistical significance using analysis of variance (ANOVA) and means of treatments for each set of data were separated using Duncan's multiple range test at the P=0.05 level. All statistical analyses were done using SAS Statistical Analysis Software, Version 8.2 (SAS Institute Inc., Cary, N.C. 2001).

[3] = system: Pythium spp. (predominantly Pythium sp. ‘group G’); test: Seed treatment of field pea cv. Trapper, damping-off field experiment 2004; conditions: for Plant Height (cm): 6-node stage (4 weeks after planting)
Experimental: as §2, §3, §4, §5, §6

Pythium spp. [4] = test: Seed treatment of field pea, field naturally infested with Pythium spp. (2001 field experiments); conditions: 4 weeks after planting
Experimental: as §1

SMILES: CN(C)C(=S)SSC(=S)N(C)C [Thiram]
- Emergence (%) Sugar beet (Beta vulgaris) August 2001 (Pythium spp. [1]; untreated control 6.5): 27.0a %
- Emergence (%) Sugar beet (Beta vulgaris) May 2001 (Pythium spp. [1]; untreated control 10.0): 28.6a %
- Plant Height (cm) ([2]; 5-node stage (4 weeks after planting), control 11.2): 11.4 a cm
- Damping-off (%) Post-emergent ([2]; control 2.7): 2.6%
- Damping-off (%) by Pythium ([2]; control 35.3, listed as Fungicide (Thiram)): 22.8 d %
- Damping-off (%) by Pythium ([2]; control 35.3, listed as fungicide): 22.8%
- Damping-off (%) Pre-emergent ([2]; control 46.3): 34.2%
- Damping-off (%) Pre-emergent ([2]; control 46.3, listed as Fungicide (Thiram)): 34.2 c %
- Final Stand (%) ([2]; control 51.0): 63.2 d %
- Plant Height (cm) ([3]; control 11.1): 14.6 cm
- Plant Height (cm) ([3]; control 11.1, listed as Fungicide (Thiram)): 14.6 c cm
- Damping-off (%) Post-emergent ([3]; control 0.2): 0.6%
- Final Stand (%) ([3]; control 37.8): 79.1 c %
- Damping-off (%) by Pythium ([3]; control 55.4, listed as Fungicide (Thiram)): 16.7 c %
- Damping-off (%) by Pythium ([3]; control 55.4, listed as fungicide): 16.7%
- Damping-off (%) Pre-emergent ([3]; control 62.0): 20.3%
- Damping-off (%) Pre-emergent ([3]; control 62.0, listed as Fungicide (Thiram)): 20.3 c %
- Emergence (%) Pea (Pisum sativum) August 2001 (Pythium spp. [4]; untreated control 12.8): 48.3a %
- Emergence (%) Pea (Pisum sativum) May 2001 (Pythium spp. [4]; untreated control 41.4): 71.4a %
